Data reported in article PMC7982521, “Studies on the Changes of Pharmacokinetics Behaviors of Phytochemicals and the Influence on Endogenous Metabolites After the Combination of Radix Bupleuri and Radix Paeoniae Alba Based on Multi-Component Pharmacokinetics and Metabolomics” (Frontiers in Pharmacology, 2021).
Read-outs that look alike come from different tables or passages of the source.

Test: Multi-component pharmacokinetics in rat plasma after oral administration of RB, RPA or RB-RPA extracts (UPLC-HRMS, non-compartmental analysis)
Assay type: in vivo, Sprague-Dawley rats
Settings: for change of AUC0-∞ after combination: oral RB-RPA group vs single herbal group (RB or RPA)
Protocol: (Beijing, China, No. SCXK2018-0011). […] All rats were free to access the water and food until 12 h before the experiment. The animal study was reviewed and approved by the Experimental Animal Ethical Committee of Modern Research Center for Traditional Chinese Medicine, Shanxi University (animal ethic approval number: SXULL2018018), and all experimental procedures were carried out in accordance with the NIH Guide for the Care and Use of Laboratory Animals. After one week of adaptation, twenty-one rats were divided into three groups randomly, with seven rats in each group: 1) RPA group, were oral administration of Radix Paeoniae Alba extract (45 g-herb/kg); 2) RB group, were oral administration of Radix Bupleuri extract (45 g-herb/kg); 3) RB-RPA group, were oral administration of powder mixture of Radix Bupleuri and Radix Paeoniae Alba extracts (containing 45 g-herb/kg Radix Bupleuri and 45 g-herb/kg Radix Paeoniae Alba). […] Each group received intragastric administration with a volume of 10 ml/kg (rat body weight). […] All rats were free to access the water during the experiment. The blood samples at each time point were collected from seven rats. The blood samples were centrifuged at 4,000 rpm for 10 min and frozen at -80°C until analysis. Using a Thermo-Fisher Dionex UltiMate 3000 UHPLC system coupled with a Q Exactive Orbitrap-MS (Thermo-Fisher, United States) and Xcalibur workstation (Thermo-Fisher Scientific Inc.,Waltham, MA, United States) to acquire UPLC-HRMS raw data. Chromatographic separation of herb extracts and plasma samples was performed on an Acquity UPLC HSS T3 column (2.1 mm × 100 mm, 1.8 μm) maintained at 37°C. The flow rate was 0.2 ml/min and the injection volume was 5 μL. […] Mass spectrometry detection conditions were set as follows: the MS data were acquired under positive and negative ionization modes via heated electrospray ionization (HESI) source. […] The Q Exactive Orbitrap-MS has a fast positive and negative ion switching function, which could switch between positive-negative ion modes during the analysis of the same sample. So, we applied the method of switching ion modes in the detection process to quantify all analytes better. […] UPLC/MS/MS calibration and quantitation data were processed with Xcalibur workstation (Thermo-Fisher Scientific Inc., Waltham, MA, United States). For the eight components with standard reference, calculating their concentrations from the standard curves. For the other 30 components without standard reference, their concentrations were analyzed following the regression equations of homologous compounds ([Qiao et al., 2012]): paeoniflorin for P1 and M1 to M3; methylgallate for M4 to M10; saikosaponin […] and […]; saikosaponin […]; saikosaponin […]; saikosaponin B2 for P11 and M25 to […].

[1] = rat plasma, oral RB-RPA mixed extracts (45 g-herb/kg RB + 45 g-herb/kg RPA), mean ± SD, n = 7
[2] = rat plasma, oral administration of mixed extracts RB-RPA, mean ± SD, n = 7
[3] = rat plasma, oral administration of single extract RPA, mean ± SD, n = 7
[4] = male, Sprague-Dawley, rat, plasma, po, 45 g/kg, rat plasma, oral administration of mixed extracts RB-RPA, mean ± SD, n = 7
[5] = rat plasma, oral RB single extract 45 g-herb/kg, mean ± SD, n = 7

A Cmax [1] of 365.94 ± 41.75 ng/mL, a Cmax (rat plasma, oral RPA single extract 45 g-herb/kg, mean ± SD, n = 7) of 271.50 ± 63.29 ng/mL and an AUC0-t [2] of 1834.06 ± 191.89 ng·h/mL were found for C[C@]12C[C@@H](O)[C@@H]3C[C@@]1(O[C@@H]1O[C@H](CO)[C@@H](O)[C@H](O)[C@H]1O)[C@@]3(COC(=O)c1ccccc1)C(=O)O2 [Albiflorin] in this work. The “AUC0-∞” value [2] was 1849.80 ± 396.92 ng·h/mL, the Cmax [2] was 365.94 ± 41.75 ng/mL and the t1/2 [2] was 3.46 ± 0.56 h. The tmax [2] was 0.71 ± 0.25 h, the AUC0-t [3] was 1202.69 ± 302.31 ng·h/mL and the “AUC0-∞” value [3] was 1210.33 ± 303.04 ng·h/mL. It also gave a Cmax [3] of 271.50 ± 63.29 ng/mL, a t1/2 [3] of 3.19 ± 0.58 h and a tmax [3] of 1.25 ± 0.89 h. The “change of AUC0-∞ after combination” value (rat) was “significantly increased”.
A Cmax (male, Sprague-Dawley, rat, plasma, po, 45 g-herb/kg, rat plasma, oral RPA single extract 45 g-herb/kg, mean ± SD, n = 7, read-out: Cmax) of 1780 ± 513 ng/mL, an AUC(0-inf) [4] of 7170 ± 1140 ng·h/mL and a half-life [4] of 1.96 ± 0.37 h were found for C[C@@]12C[C@@]3(O)O[C@@H](O1)[C@]1(COC(=O)c4ccccc4)[C@H]3C[C@@]12O[C@@H]1O[C@H](CO)[C@@H](O)[C@H](O)[C@H]1O [Paeoniflorin] in this work. It also gave an AUC0-t (male, Sprague-Dawley, rat, plasma, po, 45 g/kg, rat plasma, oral administration of mixed extracts RB-RPA, mean ± SD, n = 7, read-out: AUC0-t) of 7170 ± 1140 ng·h/mL, a Cmax (male, Sprague-Dawley, rat, plasma, po, 45 g/kg, rat plasma, oral administration of mixed extracts RB-RPA, mean ± SD, n = 7, read-out: Cmax) of 2930 ± 386 ng/mL and a tmax (male, Sprague-Dawley, rat, plasma, po, 45 g/kg, rat plasma, oral administration of mixed extracts RB-RPA, mean ± SD, n = 7, read-out: tmax) of 0.33 ± 0.13 h. For the same molecule, the AUC(0-inf) (male, Sprague-Dawley, rat, plasma, po, 45 g/kg, rat plasma, oral administration of single extract RPA, mean ± SD, n = 7) was 4260 ± 873 ng·h/mL, the AUC0-t (male, Sprague-Dawley, rat, plasma, po, 45 g/kg, rat plasma, oral administration of single extract RPA, mean ± SD, n = 7, read-out: AUC0-t) was 4260 ± 869 ng·h/mL and the Cmax (male, Sprague-Dawley, rat, plasma, po, 45 g/kg, rat plasma, oral administration of single extract RPA, mean ± SD, n = 7, read-out: Cmax) was 1780 ± 513 ng/mL. For the same molecule, the Cmax (male, Sprague-Dawley, rat, plasma, po, rat plasma, oral RB-RPA mixed extracts (45 g-herb/kg RB + 45 g-herb/kg RPA), mean ± SD, n = 7, read-out: Cmax) was 2930 ± 386 ng/mL, the t1/2 [3] was 2.71 ± 0.72 h and the “change of AUC0-∞ after combination” value (rat) was “significantly increased”.
In the case of Paeonimetabolin II, the AUC0-t [2] is reported as 9490.91 ± 4705.90 ng·h/mL, the “AUC0-∞” value [2] is reported as 13198.67 ± 4477.34 ng·h/mL and the Cmax [2] is reported as 984.50 ± 452.44 ng/mL. It also gave a t1/2 [2] of 9.30 ± 2.76 h, a tmax [2] of 1.17 ± 0.90 h and an AUC0-t [3] of 6694.27 ± 2468.69 ng·h/mL. For the same molecule, the “AUC0-∞” value [3] was 8022.12 ± 2764.81 ng·h/mL, the Cmax [3] was 850.12 ± 292.63 ng/mL and the t1/2 [3] was 9.22 ± 2.04 h. For the same molecule, the tmax [3] was 1.04 ± 0.37 h and the “change of AUC0-∞ after combination” value (rat) was “significantly increased”.
For Acetyl-saikosaponin B2, the AUC0-t [5] was 16.86 ± 4.34 ng·h/mL, the “AUC0-∞” value [5] was 19.75 ± 3.88 ng·h/mL and the Cmax [5] was 14.82 ± 4.41 ng/mL. The t1/2 [5] was 3.81 ± 1.29 h, the tmax [5] was 0.42 ± 0.13 h and the AUC0-t [1] was 23.18 ± 12.77 ng·h/mL. For the same molecule, the “AUC0-∞” value [1] was 26.03 ± 13.58 ng·h/mL, the Cmax [1] was 12.94 ± 6.29 ng/mL and the t1/2 [1] was 3.18 ± 1.01 h. For the same molecule, the tmax [1] was 0.42 ± 0.13 h.
For C[C@@H]1O[C@@H](O[C@@H]2[C@H](O)[C@@H](O)[C@H](O[C@H]3CC[C@@]4(C)C(CC[C@]5(C)C4C=C[C@]46OC[C@@]7(CCC(C)(C)CC74)[C@@H](O)C[C@]65C)C3(C)C)O[C@@H]2CO[C@@H]2O[C@H](CO)[C@@H](O)[C@H](O)[C@H]2O)[C@H](O)[C@H](O)[C@H]1O (some centres unmarked) [Saikosaponin C], the AUC0-t [5] was 38.82 ± 9.84 ng·h/mL, the “AUC0-∞” value [5] was 42.15 ± 8.73 ng·h/mL and the Cmax [5] was 31.12 ± 11.08 ng/mL. The t1/2 [5] was 2.07 ± 1.12 h, the tmax [5] was 0.50 ± 0.16 h and the AUC0-t [1] was 51.33 ± 16.19 ng·h/mL. For the same molecule, the “AUC0-∞” value [1] was 53.67 ± 16.16 ng·h/mL, the Cmax [1] was 20.63 ± 5.65 ng/mL and the t1/2 [1] was 2.53 ± 1.54 h. It also gave a tmax [1] of 0.66 ± 0.30 h.
